Source: patent US20260000075A1, “HERBICIDAL MALONIC ACID MONOAMIDES AND MALONAMIDE ESTERS” (BASF SE, priority 2022, published 2026)

What was measured:
LOLMU = experiment: greenhouse pre-emergence herbicidal test; type: in vivo, Lolium multiflorum; conditions: pre-emergence method, application rate 1.000 kg/ha, scale from 0 to 100
Source text: (§1) The culture containers used were plastic flowerpots containing loamy sand with approximately 3.0% of humus as the substrate. The seeds of the test plants were sown separately for each species.
(§2) For the pre-emergence treatment, the active ingredients, which had been suspended or emulsified in water, were applied directly after sowing by means of finely distributing nozzles. The containers were irrigated gently to promote germination and growth and subsequently covered with transparent plastic hoods until the test plants had rooted.
(§3) This cover caused uniform germination of the test plants, unless this had been impaired by the active ingredients.
(§4) Depending on the species, the test plants were kept at 10-25° C. or 20-35° C., respectively.
(§5) The test period extended over 2 to 4 weeks. During this time, the test plants were tended, and their response to the individual treatments was evaluated.
(§6) Evaluation was carried out using a scale from 0 to 100. 100 means no emergence of the test plants, or complete destruction of at least the aerial moieties, and 0 means no damage, or normal course of growth. A good herbicidal activity is given at values of 70 to <90 and a very good herbicidal activity is given at values of 90 to 100.
(§7) The test plants used in the greenhouse experiments were of the following species: […]

AMARE [1] = experiment: greenhouse post-emergence herbicidal test; type: in vivo, Amaranthus retroflexus; conditions: post-emergence method, application rate 1.000 kg/ha, scale from 0 to 100
Source text: as §1
(§8) For the post-emergence treatment, the test plants were first grown to a height of 3 to 15 cm, depending on the plant habit, and only then treated with the active ingredients which had been suspended or emulsified in water. For this purpose, the test plants were either sown directly and grown in the same containers, or they were first grown separately as seedlings and transplanted into the test containers a few days prior to treatment.
as §4, §5, §6, §7

AVEFA = experiment: greenhouse post-emergence herbicidal test; type: in vivo, Avena fatua; conditions: post-emergence method, application rate 1.000 kg/ha, scale from 0 to 100
Source text: as §1, §8, §4, §5, §6, §7

DIGSA = experiment: greenhouse pre-emergence herbicidal test; type: in vivo, Digitaria sanguinalis; conditions: pre-emergence method, application rate 1.000 kg/ha, scale from 0 to 100
Source text: as §1, §2, §3, §4, §5, §6, §7

APESV = experiment: greenhouse pre-emergence herbicidal test; type: in vivo, Apera spica-venti; conditions: pre-emergence method, scale from 0 to 100
Source text: as §1, §2, §3, §4, §5, §6, §7

ECHCG = experiment: greenhouse pre-emergence herbicidal test; type: in vivo, Echinocloa crus-galli; conditions: pre-emergence method, scale from 0 to 100
Source text: as §1, §2, §3, §4, §5, §6, §7

ALOMY = experiment: greenhouse post-emergence herbicidal test; type: in vivo, Alopercurus myosuroides; conditions: post-emergence method, scale from 0 to 100
Source text: as §1, §8, §4, §5, §6, §7

SETVI [2] = experiment: greenhouse post-emergence herbicidal test; type: in vivo, Setaria viridis; conditions: post-emergence method, application rate 0.250 kg/ha, scale from 0 to 100
Source text: as §1, §8, §4, §5, §6, §7

SETVI [3] = experiment: greenhouse pre-emergence herbicidal test; type: in vivo, Setaria viridis; conditions: pre-emergence method, application rate 0.500 kg/ha, scale from 0 to 100
Source text: as §1, §2, §3, §4, §5, §6, §7

AMARE [4] = experiment: greenhouse pre-emergence herbicidal test; type: in vivo, Amaranthus retroflexus; conditions: pre-emergence method, scale from 0 to 100
Source text: as §1, §2, §3, §4, §5, §6, §7

SETFA = experiment: greenhouse pre-emergence herbicidal test; type: in vivo, Setaria faberi; conditions: pre-emergence method, application rate 0.500 kg/ha, scale from 0 to 100
Source text: as §1, §2, §3, §4, §5, §6, §7

Molecule: O=C(O)C1(C(=O)Nc2cc(F)cc(F)c2)CC=CO1 (stereo not shown) [compound 1.26, 2-[(3,5-difluorophenyl)carbamoyl]-3H-furan-2-carboxylate]
- herbicidal activity against LOLMU (LOLMU): very good (a very good herbicidal activity is given at values of 90 to 100)
- herbicidal activity against AMARE (AMARE [1]): good (A good herbicidal activity is given at values of 70 to <90)
- herbicidal activity against AVEFA (AVEFA): very good (a very good herbicidal activity is given at values of 90 to 100)
- herbicidal activity against DIGSA (DIGSA): very good (a very good herbicidal activity is given at values of 90 to 100)

Molecule: CCOC(=O)C1(C(=O)Nc2cc(Cl)cc(Cl)c2)CCO1 (stereo not shown) [compound 11.1, ethyl 2-[(3,5-dichlorophenyl)carbamoyl]oxetane-2-carboxylate]
- herbicidal activity against APESV (APESV; application rate 1.000 kg/ha): good (A good herbicidal activity is given at values of 70 to <90)
- herbicidal activity against ECHCG (ECHCG; application rate 1.000 kg/ha): good (A good herbicidal activity is given at values of 70 to <90)

Molecule: CCOC(=O)C1(C(=O)Nc2cc(F)cc(F)c2)CC=CO1 (stereo not shown) [compound 1.25, ethyl 2-[(3,5-difluorophenyl)carbamoyl]-3H-furan-2-carboxylate]
- herbicidal activity against ALOMY (ALOMY; application rate 0.250 kg/ha): very good (a very good herbicidal activity is given at values of 90 to 100)

Molecule: O=C(O)C1(C(=O)Nc2cc(F)cc(F)c2)CCO1 (stereo not shown) [compound 11.5]
- herbicidal activity against SETVI (SETVI [2]): very good (a very good herbicidal activity is given at values of 90 to 100)

Molecule: CSCCOC(=O)C1(C(=O)Nc2cc(F)cc(F)c2)C=CCO1 (stereo not shown) [compound 1.9]
- herbicidal activity against SETVI (SETVI [3]): very good (a very good herbicidal activity is given at values of 90 to 100)

Molecule: CC1=CCOC1(C(=O)O)C(=O)Nc1cc(Cl)cc(Cl)c1 (stereo not shown) [compound 1.6]
- herbicidal activity against APESV (APESV; application rate 0.125 kg/ha): good (A good herbicidal activity is given at values of 70 to <90)
- herbicidal activity against AMARE (AMARE [4]; application rate 0.125 kg/ha): good (A good herbicidal activity is given at values of 70 to <90)

Molecule: 5-[(3,5-difluorophenyl)carbamoyl]-hydrofuran-5-carboxylic acid [compound 1.7]
- herbicidal activity against ALOMY (ALOMY; application rate 0.500 kg/ha): very good (a very good herbicidal activity is given at values of 90 to 100)
- herbicidal activity against SETFA (SETFA): good (A good herbicidal activity is given at values of 70 to <90)
- herbicidal activity against APESV (APESV; application rate 0.500 kg/ha): very good (a very good herbicidal activity is given at values of 90 to 100)
- herbicidal activity against ECHCG (ECHCG; application rate 0.500 kg/ha): good (A good herbicidal activity is given at values of 70 to <90)

Molecule: CS(=O)(=O)CCOC(=O)C1(C(=O)Nc2cc(F)cc(F)c2)CCO1 (stereo not shown) [compound 11.8]
- herbicidal activity against AMARE (AMARE [4]; application rate 0.250 kg/ha): good (A good herbicidal activity is given at values of 70 to <90)
